These results are taken from ChEMBL document CHEMBL1152121, “Improvement of water solubility of non-competitive AMPA receptor antagonists by complexation with beta-cyclodextrin” (Bioorg Med Chem, 2008).

Data set [1] is described as follows: Binding affinity to beta-cyclodextrin in aqueous solution after 72 hrs by phase-solubility measurements. It counts as ADME. Conditions: buffer.
Data set [2] can be described thus: Aqueous solubility of the compound. Conditions: water. It counts as physicochemical.

Molecules are shown by their SMILES. ≈ marks a conversion by molar mass, not a printed value.

`COc1cc2c(cc1OC)[C@@H](c1ccc(Cl)cc1)N(C(C)=O)CC2` had a K in data set [1] of 15889 M⁻¹. The solubility in data set [2] is 5 mM (≈ 1730 µg/mL).
Taken in the same sequence, the figures for `COc1cc2c(cc1OC)C(c1ccc(Cl)cc1)N(C(C)=O)CC2` (racemic) were 1079 M⁻¹ and 3 mM (≈ 1040 µg/mL).

By solubility is commonly meant the concentration that dissolves in the medium under given conditions. A lower solubility goes with little dissolved substance.
